Source: ChEMBL document CHEMBL1201862, “PubChem BioAssay data set” (2004)
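Step 1: Grow cells in 96-well plates. Step 2: Expose to compound for 48 hours at 5 concentrations. Step 3: Interpolate endpoints linearly; if unreached, use highest concentration. GI50 = concentration required for 50% inhibition of growth.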 Calls of active or inactive are those of the source. Rule as the data show it: active = GI50 up to about 1.1 µM and inactive = higher.

What was measured:
Experiment in all cases: NCI tumour cell line growth inhibition, 48 h
[1] = tested on: K562
[2] = tested on: UACC-62
[3] = tested on: SK-MEL-5
[4] = tested on: KM-20L2
[5] = tested on: A549
[6] = tested on: COLO 205
[7] = tested on: U-251
[8] = tested on: UO-31
[9] = tested on: CCRF-CEM
[10] = tested on: NCI-H460
[11] = tested on: SNB-75
[12] = tested on: HOP-62
[13] = tested on: OVCAR-5
[14] = tested on: UACC-257
[15] = tested on: EKVX
[16] = tested on: SNB-78
[17] = tested on: ACHN
[18] = tested on: NCI-H522
[19] = tested on: DMS-273
[20] = tested on: RPMI-8226
[21] = tested on: SN12C
[22] = tested on: 786-0
[23] = tested on: NCI-H23
[24] = tested on: TK-10
[25] = tested on: XF498
[26] = tested on: OVCAR-3
[27] = tested on: KM12
[28] = tested on: OVCAR-4
[29] = tested on: M19-MEL
[30] = tested on: HCT-116
[31] = tested on: SF-268
[32] = tested on: MOLT-4
[33] = tested on: CAKI-1
[34] = tested on: SK-MEL-28
[35] = tested on: SF-295
[36] = tested on: LOX IMVI
[37] = tested on: A498
[38] = tested on: HOP-92
[39] = tested on: HCT-15
[40] = tested on: OVCAR-8
[41] = tested on: Malme-3M
[42] = tested on: SNB-19
[43] = tested on: HT-29
[44] = tested on: DMS-114
[45] = tested on: SF-539
[46] = tested on: DLD-1
[47] = tested on: NCI-H226
[48] = tested on: SK-MEL-2
[49] = tested on: HL-60
[50] = tested on: IGROV-1
[51] = tested on: HCC 2998
[52] = tested on: M14
[53] = tested on: SW-620
[54] = tested on: RXF 393
[55] = tested on: HOP-18
[56] = tested on: SR
[57] = tested on: SK-OV-3
[58] = tested on: LXFL 529

Q: Which GI50 [1] does the source give for `CS/C(=N/C(=O)c1ccccc1Cl)SCCS/C(=N\C(=O)c1ccccc1Cl)SC` here?
A: > 100 µM (inactive)

Q: And the GI50 [2]?
A: > 100 µM (inactive)

Q: And the GI50 [3]?
A: > 100 µM (inactive)

Q: What about the GI50 [4] of the same compound?
A: > 100 µM (inactive)

Q: And the GI50 [5]?
A: > 100 µM (inactive)

Q: What about the GI50 [6] of the same compound?
A: > 100 µM (inactive)

Q: What about the GI50 [7] of the same compound?
A: > 100 µM (inactive)

Q: What about the GI50 [8] of the same compound?
A: > 100 µM (inactive)

Q: What about the GI50 [9] of the same compound?
A: > 100 µM (inactive)

Q: And the GI50 [10]?
A: > 100 µM (inactive)

Q: What about the GI50 [11] of the same compound?
A: > 100 µM (inactive)

Q: And the GI50 [12]?
A: > 100 µM (inactive)

Q: What about the GI50 [13] of the same compound?
A: > 100 µM (inactive)

Q: What about the GI50 [14] of the same compound?
A: > 100 µM (inactive)

Q: And the GI50 [15]?
A: > 100 µM (inactive)

Q: And the GI50 [16]?
A: > 100 µM (inactive)

Q: What about the GI50 [17] of the same compound?
A: > 100 µM (inactive)

Q: And the GI50 [18]?
A: > 100 µM (inactive)

Q: What about the GI50 [19] of the same compound?
A: > 100 µM (inactive)

Q: What about the GI50 [20] of the same compound?
A: > 100 µM (inactive)

Q: What about the GI50 [21] of the same compound?
A: > 100 µM (inactive)

Q: What about the GI50 [22] of the same compound?
A: > 100 µM (inactive)

Q: What about the GI50 [23] of the same compound?
A: > 100 µM (inactive)

Q: And the GI50 [24]?
A: > 100 µM (inactive)

Q: And the GI50 [25]?
A: > 100 µM (inactive)

Q: And the GI50 [26]?
A: > 100 µM (inactive)

Q: And the GI50 [27]?
A: > 100 µM (inactive)

Q: And the GI50 [28]?
A: > 100 µM (inactive)

Q: And the GI50 [29]?
A: > 100 µM (inactive)

Q: And the GI50 [30]?
A: > 100 µM (inactive)

Q: What about the GI50 [31] of the same compound?
A: > 100 µM (inactive)

Q: What about the GI50 [32] of the same compound?
A: > 100 µM (inactive)

Q: What about the GI50 [33] of the same compound?
A: > 100 µM (inactive)

Q: What about the GI50 [34] of the same compound?
A: > 100 µM (inactive)

Q: What about the GI50 [35] of the same compound?
A: > 100 µM (inactive)

Q: What about the GI50 [36] of the same compound?
A: > 100 µM (inactive)

Q: And the GI50 [37]?
A: > 100 µM (inactive)

Q: And the GI50 [38]?
A: 19.6 µM (inactive)

Q: And the GI50 [39]?
A: > 100 µM

Q: And the GI50 [40]?
A: > 100 µM (inactive)

Q: What about the GI50 [41] of the same compound?
A: > 100 µM (inactive)

Q: And the GI50 [42]?
A: > 100 µM (inactive)

Q: What about the GI50 [43] of the same compound?
A: > 100 µM (inactive)

Q: What about the GI50 [44] of the same compound?
A: > 100 µM (inactive)

Q: And the GI50 [45]?
A: > 100 µM (inactive)

Q: What about the GI50 [46] of the same compound?
A: > 100 µM (inactive)

Q: And the GI50 [47]?
A: > 100 µM (inactive)

Q: And the GI50 [48]?
A: > 100 µM (inactive)

Q: And the GI50 [49]?
A: > 100 µM (inactive)

Q: And the GI50 [50]?
A: > 100 µM (inactive)

Q: And the GI50 [51]?
A: > 100 µM (inactive)

Q: And the GI50 [52]?
A: > 100 µM (inactive)

Q: What about the GI50 [53] of the same compound?
A: > 100 µM (inactive)

Q: What about the GI50 [54] of the same compound?
A: > 100 µM (inactive)

Q: What does the source list for `NC1=NS(=O)(=O)Nc2nc(-c3cccs3)[nH]c21`?
A: GI50 [1]: > 100 µM (inactive); GI50 [2]: > 100 µM (inactive); GI50 [3]: > 100 µM (inactive); GI50 [4]: > 100 µM (inactive); GI50 [5]: > 100 µM (inactive); GI50 [6]: > 100 µM (inactive); GI50 [7]: > 100 µM (inactive); GI50 [8]: > 100 µM (inactive); GI50 [9]: > 100 µM (inactive); GI50 [10]: > 100 µM (inactive); GI50 [11]: > 100 µM (inactive); GI50 [12]: > 100 µM (inactive); GI50 [13]: > 100 µM (inactive); GI50 [55]: > 100 µM (inactive); GI50 [17]: > 100 µM (inactive); GI50 [18]: > 100 µM (inactive); GI50 [19]: > 100 µM (inactive); GI50 [20]: > 100 µM (inactive); GI50 [21]: > 100 µM (inactive); GI50 [22]: > 100 µM (inactive); GI50 [23]: > 100 µM (inactive); GI50 [24]: > 100 µM (inactive); GI50 [26]: > 100 µM (inactive); GI50 [27]: > 100 µM (inactive); GI50 [56]: > 100 µM (inactive); GI50 [28]: > 100 µM (inactive); GI50 [29]: > 100 µM (inactive); GI50 [30]: > 100 µM (inactive); GI50 [31]: > 100 µM (inactive); GI50 [32]: > 100 µM (inactive); GI50 [33]: > 100 µM (inactive); GI50 [34]: > 100 µM (inactive); GI50 [35]: > 100 µM (inactive); GI50 [36]: > 100 µM (inactive); GI50 [37]: > 100 µM (inactive); GI50 [38]: > 100 µM (inactive); GI50 [39]: > 100 µM; GI50 [57]: > 100 µM (inactive); GI50 [40]: > 100 µM (inactive); GI50 [41]: > 100 µM (inactive); GI50 [42]: > 100 µM (inactive); GI50 [43]: > 100 µM (inactive); GI50 [45]: > 100 µM (inactive); GI50 [46]: > 100 µM (inactive); GI50 [48]: > 100 µM (inactive); GI50 [49]: > 100 µM (inactive); GI50 [50]: > 100 µM (inactive); GI50 [58]: > 100 µM (inactive); GI50 [51]: > 100 µM (inactive); GI50 [52]: > 100 µM (inactive); GI50 [53]: > 100 µM (inactive); GI50 [54]: > 100 µM (inactive)
